What all share (type): cell-based
The subject of one assay is HIV-1. Kind of assay: HIV-1 infection/replication in Ghost(3) reporter cells (LTR-driven GFP expression). The following applies: Ghost(3) cells exposed to HIV-1 and treated.
A further assay relates to hnRNP-K. Kind of assay: Immunofluorescence of hnRNP-K cellular location in Ghost(3) cells. As for the experimental part: (§1) For each experiment, Ghost(3) cells or IPSC-derived primary macrophages were infected or treated with 500 nM Doxorubicin on coverslips, fixed for 10 mins in fresh 4% paraformaldehyde at room temperature, then washed 3 times in PBS and permeabilised for 10 mins in ice-cold methanol at […]. Coverslips were washed once in PBS and incubated in blocking buffer (5% goat serum, 0.3% TritonX100 in PBS) for 60 mins at room temperature. Cells were incubated in primary antibody solution (1% BSA, 0.3% Triton X100 in PBS) overnight at 4° C. Double strand breaks were detected using rabbit polyclonal anti-phosphohistone H2A.X Ser139 (Cell Signaling). Activated ATM was detected using rabbit monoclonal anti-phosphoATM Ser1981 (Cell Signaling). The ability of p53 to regulate apoptosis was detected using rabbit polyclonal antiphosphop53 Ser46 (Cell Signaling). Viral p24 was detected using mouse monoclonal anti-HIV1p24 (AIDS Research and Reference Reagent Program, Division of AIDS, NIAID, NIH). HuR was detected using mouse monoclonal anti-HuR 3A2 (Santa Cruz Biotechnology). hnRNPK was detected using goat polyclonal anti-hnRNPK P20 (Santa Cruz Biotechnology). Coverslips were washed 3 times (5 mins each on an orbital shaker) with wash buffer (0.05% Tween20 in PBS), followed by incubation with secondary antibodies conjugated to either Atto550 or Atto565 or Atto647 for 60 mins at room temperature. Coverslips were washed 3 times (5 mins each on an orbital shaker) with wash buffer (0.05% Tween20 in PBS). Coverslips were incubated in equilibration buffer (0.4% glucose, 2×SCC) for 5 mins and counter stained with 1 mg/ml DAPI (4′,6-diamidino-2-phenylindole; Life Technologies). Coverslips were mounted in glox buffer (3.7 mg/ml glucose oxidase, 1 U catalase) and imaged.
For each experiment, cells were infected or treated with drugs on coverslips, fixed for 10 mins in fresh 4% paraformaldehyde at room temperature, then washed 3 times in PBS and permeabilised for 10 mins in ice-cold methanol at −20° C. Coverslips were washed once in PBS and incubated in blocking buffer (5% goat serum, 0.3% Triton-X100 in PBS) for 60 mins at room temperature. Cells were incubated in primary antibody solution (1% BSA, 0.3% Triton X-100 in PBS) overnight at 4° C. Double strand breaks were detected using rabbit polyclonal anti-phospho-histone H2A.X Ser139 (Cell Signaling). Activated ATM was detected using rabbit monoclonal anti-phospho-ATM Ser1981 (Cell Signaling). The ability of p53 to regulate apoptosis was detected using rabbit polyclonal anti-phospho-p53 Ser46 (Cell Signaling). Viral p24 was detected using mouse monoclonal anti-HIV-1-p24 (AIDS Research and Reference Reagent Program, Division of AIDS, NIAID, NIH). HuR was detected using mouse monoclonal anti-HuR 3A2 (Santa Cruz Biotechnology). hnRNP-K was detected using goat polyclonal anti-hnRNP-K P-20 (Santa Cruz Biotechnology). Coverslips were washed 3 times (5 mins each on an orbital shaker) with wash buffer (0.05% Tween-20 in PBS), followed by incubation with secondary antibodies conjugated to either Atto-550 or Atto-565 or Atto-647 for 60 mins at room temperature. Coverslips were washed 3 times (5 mins each on an orbital shaker) with wash buffer (0.05% Tween-20 in PBS). Coverslips were incubated in equilibration buffer (0.4% glucose, 2×SCC) for 5 mins and counter stained with 1 mg/ml DAPI (4′,6-diamidino-2-phenylindole; Life Technologies). Coverslips were mounted in glox buffer (3.7 mg/ml glucose oxidase, 1 U catalase) and imaged.

Another assay concerns HuR. The assay is described as follows: Immunofluorescence of HuR cellular location in Ghost(3) cells. Conditions: HIV-infected Ghost(3) cells with inhibitor added (10 μM). As for the experimental part: as §1, with “Coverslips were washed 3 times (5 mins each on an orbital shaker) with wash buffer (0.05% Tween20 in PBS), followed by incubation with secondary antibodies conjugated to either Atto550 or Atto565 or Atto647 for 60 mins at room temperature. Coverslips were washed 3 times (5 mins each on an orbital shaker) with wash buffer (0.05% Tween20 in PBS). Coverslips were incubated in equilibration buffer (0.4% glucose, 2×SCC) for 5 mins and counter stained with 1 mg/ml DAPI (4′,6-diamidino-2-phenylindole; Life Technologies). Coverslips were mounted in glox buffer (3.7 mg/ml glucose oxidase, 1 U catalase) and imaged.” left out
For each experiment, cells were infected or treated with drugs on coverslips, fixed for 10 mins in fresh 4% paraformaldehyde at room temperature, then washed 3 times in PBS and permeabilised for 10 mins in ice-cold methanol at −20° C. […] Double strand breaks were detected using rabbit polyclonal anti-phospho-histone H2A.X Ser139 (Cell Signaling). Activated ATM was detected using rabbit monoclonal anti-phospho-ATM Ser1981 (Cell Signaling). The ability of p53 to regulate apoptosis was detected using rabbit polyclonal anti-phospho-p53 Ser46 (Cell Signaling). Viral p24 was detected using mouse monoclonal anti-HIV-1-p24 (AIDS Research and Reference Reagent Program, Division of AIDS, NIAID, NIH). HuR was detected using mouse monoclonal anti-HuR 3A2 (Santa Cruz Biotechnology). hnRNP-K was detected using goat polyclonal anti-hnRNP-K P-20 (Santa Cruz Biotechnology). […]

A further assay deals with Ghost(3) cells. The following applies: for apoptosis of HIV-infected cells: HIV-infected Ghost(3) cells exposed to inhibitor (10 μM), 30 hours post-infection. The protocol:
Apoptosis was measured in Ghost(3) cells 30 hours post-infection or drug treatment using the NucView™ 488 Caspase3 Assay Kit (Biotium) in a 96 well format. Data was analysed in MATLAB using a probabilistic region method to measure cell attachment and expressed as percentage cell survival. […] An average of 3000 cells per condition were analysed with the exception of cells treated with Doxorubicin followed by HIV-infection (FIG. 3), cells transfected with lincRNAp21 overexpression constructs followed by Doxorubicin treatment, and cells transfected with full-length lincRNAp21, infected with HIV1 and treated with Nutlin3 (FIG. 25). These latter conditions ( ? ) yielded too few attached cells (<20) at 30 hours for similar analysis.
Apoptosis was measured in Ghost(3) cells 30 hours post-infection or drug treatment using the NucView™ 488 Caspase-3 Assay Kit (Biotium) in a 96 well format. Data was analysed in MATLAB using a probabilistic region method to measure cell attachment and expressed as percentage cell survival. […] An average of 3000 cells per condition were analysed with the exception of cells treated with Doxorubicin followed by HIV-infection (FIG. 27), cells transfected with lincRNA-p21 overexpression constructs followed by Doxorubicin treatment (FIG. 36), and cells transfected with full-length lincRNA-p21, infected with HIV-1 and treated with Nutlin3 (FIG. 45). These latter conditions ( ? ) yielded too few attached cells (<20) at 30 hours for similar analysis.

[1] abbreviates: Ghost(3) cells exposed to HIV-1 and concurrently treated with 10 μM antiretroviral.
[2] abbreviates: HIV-infected Ghost(3) cells exposed to MAP2K1 or ERK2 inhibitor (10 μM), 30 hours post-infection.
[3] abbreviates: cells transfected 24 hours with full-length or truncated lincRNA-p21, then Nutlin3a, absence of HIV-1.
Setting [4] is: full-length lincRNA-p21 transfected 24 hours, HIV-1 infected 24 hours, then Nutlin3a.
Setting [5] is: truncated lincRNA-p21 transfected 24 hours, HIV-1 infected 24 hours, then Nutlin3a.

Entries after “also recorded” stand apart in the source; their conditions may differ. Like-named read-outs stand apart in the source and are kept apart here.

The values below come from US10143691B2, “Pathogenic control of apoptosis” (CSIR, priority 2014, dated 2018).

Procedure for HIV-1: Viral stocks were titred using TZMBI cells and used to infect Ghost(3) cells using an MOI=1.0, or IPSO-derived macrophages using an MOI=0.5. Where indicated, Ghost(3) cells were treated with 10 μM of either Raltegravir, Maraviroc, Tenofovir (AIDS Research and Reference Reagent Program, Division of AIDS, NIAID, NIH) or Nutlin3a (Sigma) for up to 48 hours.
Viral stocks were titred using TZM-BI cells and used to infect Ghost(3) cells using an MOI=1.0, or IPSO-derived macrophages using an MOI=0.5. Where indicated, cells were treated with 10 μM of either Raltegravir, Maraviroc, Tenofovir (AIDS Research and Reference Reagent Program, Division of AIDS, NIAID, NIH) or Doxorubicin (Sigma-Aldrich), or Nutlin3a (Sigma-Aldrich), or MAP2K1 inhibitor (U-0126) or ERK2 inhibitor (FR180204) for up to 48 hours.

For Maraviroc, the “HIV-1 infection / replication (GFP expression)” value in the assay on HIV-1 is “remained uninfected”. For the same molecule, the “cellular location of hnRNP-K” value in the assay on hnRNP-K (setting [1]) was “no nuclear hnRNPK”.
On to `C[C@H](Cn1cnc2c(N)ncnc21)OCP(=O)(O)O` [Tenofovir], for which the “cellular location of hnRNP-K” value in the assay on hnRNP-K (setting [1]) was “no nuclear hnRNPK”.
Take `Nc1n[nH]c2nnc(-c3c(-c4ccccc4)nn4ccccc34)cc12` [ERK2 inhibitor, 5-(2-phenylpyrazolo[1,5-a]pyridin-3-yl)-1H-pyrazolo[3,4-c]pyridazin-3-amine]: the “cellular location of hnRNP-K” value in the assay with hnRNP-K (setting [2]) is recorded as “strong nuclear localisation of hnRNP-K”. In the assay on HuR, the “cellular location of HuR” value is “Cytoplasmic HuR is not observed; also recorded: HIV-1 able to sequester HuR in the nucleus”. The “apoptosis of HIV-infected cells” value in the assay on Ghost(3) cells was “infected cells underwent apoptosis”.
For the molecule `N#CC(=C(N)Sc1ccccc1N)C(C#N)=C(N)Sc1ccccc1N` [MAP2K1 inhibitor, 1,4-diamino-2,3-dicyano-1,4-bis(2-aminophenylthio)butadiene], the “cellular location of hnRNP-K” value with hnRNP-K (setting [2]) is “strong nuclear localisation of hnRNP-K”. For the same molecule, in the assay with HuR, the “cellular location of HuR” value is listed as “cytoplasmic (and nuclear) HuR”. For the same molecule, the “apoptosis of HIV-infected cells” value in the assay on Ghost(3) cells is on record as “infected cells underwent apoptosis”.
`COc1ccc(C2=NC(c3ccc(Cl)cc3)C(c3ccc(Cl)cc3)N2C(=O)N2CCNC(=O)C2)c(OC(C)C)c1` (single isomer, unassigned; (-)) [Nutlin3a, (−)-4-(4,5-Bis(4-chlorophenyl)-2-(2-isopropoxy-4-methoxyphenyl)-4,5-dihydro-1H-imidazole-1-carbonyl)piperazin-2-one]: the “cellular location of hnRNP-K” value is recorded as “nuclear localisation of hnRNP-K at 48 hours in GFP-positive cells only; also recorded: nuclear localisation of hnRNPK in HIV-infected cells only; also recorded: nuclear localisation of hnRNP-K in HIV-infected cells only; also recorded: nuclear localisation of hnRNPK at 48 hours in GFP-positive cells only” in the assay on hnRNP-K (Ghost(3) cells, Nutlin3a (10 μM) added 24 hours post HIV-1 infection); “cytoplasmic hnRNP-K; also recorded: no nuclear hnRNPK; also recorded: no nuclear hnRNP-K; also recorded: cytoplasmic hnRNPK” in the assay on hnRNP-K (Ghost(3) cells, drug only, no HIV infection); “no nuclear hnRNPK was observed” in the assay with hnRNP-K (Nutlin3a added prior to HIV1 infection); “cytoplasmic hnRNPK; also recorded: cytoplasmic hnRNP-K” with hnRNP-K (setting [3]); “showed nuclear hnRNP-K; also recorded: show nuclear hnRNPK” with hnRNP-K (setting [4]); “show nuclear hnRNP-K; also recorded: also showed nuclear hnRNPK; also recorded: also showed nuclear hnRNP-K; also recorded: show nuclear hnRNPK” in the assay on hnRNP-K (setting [5]). Moreover, the apoptosis entry in the assay on Ghost(3) cells (setting [3]) was “no apoptosis”; with Ghost(3) cells (setting [4]), “undergo apoptosis within 24 hours of Nutlin3a addition; also recorded: underwent apoptosis”; with Ghost(3) cells (setting [5]) it was “do not undergo apoptosis; also recorded: did not undergo apoptosis”.
